Calls of active or inactive are those of the source. No rule for the calls is given here.
System: rodent carcinogenicity bioassays, tumor incidence
Test: CCRIS carcinogenicity studies
Outline: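 NCI-built, expert-reviewed records of carcinogenicity and related test outcomes (mutagenicity, tumor promotion/inhibition) compiled from published and report sources, historical span 1985-2011, not updated.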

O=[N+]([O-])c1ccc2ccc3c4ccccc4c([N+](=O)[O-])c4ccc1c2c43
carcinogen call (Species: RAT, Strain/Sex: F344/MALE, Route: SUBCUTANEOUS IMPLANT, Dose: 0, 8, 40, 200, 1000 UG IN 50 µL BEESWAX/TRICAPRYLIN IMPLANTED FOR UP TO 45 WK (STUDY DURATION: 45 WK), Dose: 0, 8, 40, 200, 1000 UG IN 50 µL BEESWAX/TRICAPRYLIN IMPLANTED FOR UP TO 45 WK (STUDY DURATION: 45 WK), Tumor Site: Type of Lesion: IMPLANT SITE: TUMOR): active; positive | carcinogen call (Species: RAT, Strain/Sex: F344/MALE, Route: SUBCUTANEOUS, Dose: 0, 8, 40, 200, 1000 UG SUSPENDED IN BEESWAX/TRICAPRYLIN (1:1) ONCE (STUDY DURATION: LIFETIME), Dose: 0, 8, 40, 200, 1000 UG SUSPENDED IN BEESWAX/TRICAPRYLIN (1:1) ONCE (STUDY DURATION: LIFETIME), Tumor Site: Type of Lesion: SUBCUTANEOUS TISSUE: TUMOR): active; positive

Cc1ccc(N)cc1N
carcinogen call (Species: MOUSE, Strain/Sex: B6C3F1/FEMALE, Route: ORAL, Dose: 0, 100, 200 PPM IN DIET FOR 101 WK, Dose: 0, 100, 200 PPM IN DIET FOR 101 WK, Tumor Site: Type of Lesion: HEMATOPOIETIC SYSTEM (LEUKEMIA), LYMPHATIC SYSTEM: LYMPHOMA, LIVER: HEPATOCELLULAR CARCINOMA, Tumor Site: Type of Lesion: HEMATOPOIETIC SYSTEM (LEUKEMIA), LYMPHATIC SYSTEM: LYMPHOMA, LIVER: HEPATOCELLULAR CARCINOMA): active; positive | carcinogen call (Species: MOUSE, Strain/Sex: B6C3F1/MALE, Route: ORAL, Dose: 0, 100, 200 PPM IN DIET FOR 101 WK, Dose: 0, 100, 200 PPM IN DIET FOR 101 WK): inactive; negative | carcinogen call (Species: RAT, Strain/Sex: F344/FEMALE, Route: ORAL, Dose: 0, 79, 171 PPM TWA, IN DIET FOR 84-103 WK, Dose: 0, 79, 171 PPM TWA, IN DIET FOR 84-103 WK, Tumor Site: Type of Lesion: INTEGUMENTARY SYSTEM (SUBCUTANEOUS TISSUE): FIBROMA, FIBROSARCOMA, LIVER: HEPATOCELLULAR CARCINOMA OR NEOPLASTIC NODULE;, Tumor Site: Type of Lesion: INTEGUMENTARY SYSTEM (SUBCUTANEOUS TISSUE): FIBROMA, FIBROSARCOMA, LIVER: HEPATOCELLULAR CARCINOMA OR NEOPLASTIC NODULE): active; positive | carcinogen call (Species: RAT, Strain/Sex: F344/MALE, Route: ORAL, Dose: 0, 79, 176 PPM TWA, IN DIET FOR 79-103 WK, Dose: 0, 79, 176 PPM TWA, IN DIET FOR 79-103 WK, Tumor Site: Type of Lesion: INTEGUMENTARY SYSTEM (SUBCUTANEOUS TISSUE): SQUAMOUS CELL CARCINOMA, FIBROMA, LIPOMA, LIVER: HEPATOCELLULAR CARCINOMA OR): active; positive

Nc1ccc2ccccc2c1
carcinogen call (Species: DOG, Route: ORAL, Tumor Site: Type of Lesion: URINARY BLADDER): active; positive | carcinogen call (Species: DOG, Strain/Sex: BEAGLE/FEMALE, Route: ORAL, Dose: 21.3 MG/KG 5/WK, Tumor Site: Type of Lesion: URINARY BLADDER: TRANSITIONAL CELL CARCINOMA): active; positive | carcinogen call (Species: DOG, Strain/Sex: BEAGLE/MALE, Route: ORAL, Dose: 18.4 MG/KG 5/WK, Tumor Site: Type of Lesion: URINARY BLADDER: TRANSITIONAL CELL CARCINOMA): active; positive | carcinogen call (Species: HAMSTER, Route: ORAL, Tumor Site: Type of Lesion: URINARY BLADDER): active; positive | carcinogen call (Species: HUMAN, Route: ORAL, INHALATION, DERMAL, Tumor Site: Type of Lesion: URINARY BLADDER): active; positive | carcinogen call (Species: MONKEY, Route: ORAL, Tumor Site: Type of Lesion: URINARY BLADDER): active; positive | carcinogen call (Species: MOUSE, Route: ORAL, Tumor Site: Type of Lesion: LIVER): active; positive

Nc1c(Cl)c(F)nc(OCC(=O)O)c1Cl
carcinogen call (Species: Mouse, Strain/Sex: CD-1/Female (60/Group), Route: Oral, Dose: 0, 100, 500, 1000 mg/kg/day of 98.9% fluroxypyr in diet for 18 mo, study duration 18 mo, Dose: 0, 100, 500, 1000 mg/kg/day of 98.9% fluroxypyr in diet for 18 mo, study duration 18 mo): inactive; negative | carcinogen call (Species: Mouse, Strain/Sex: CD-1/Male (60/Group), Route: Oral, Dose: 0, 100, 500, 1000 mg/kg/day of 98.9% fluroxypyr in diet for 18 mo, study duration 18 mo, Dose: 0, 100, 500, 1000 mg/kg/day of 98.9% fluroxypyr in diet for 18 mo, study duration 18 mo): inactive; negative | carcinogen call (Species: Rat, Strain/Sex: Fischer 344/Female (50/Group), Route: Oral, Dose: 0, 100, 500, 1000 mg/kg/day of 99.0% fluroxypyr in diet for 2 yr, study duration 2 yr, Dose: 0, 100, 500, 1000 mg/kg/day of 99.0% fluroxypyr in diet for 2 yr, study duration 2 yr): inactive; negative | carcinogen call (Species: Rat, Strain/Sex: Fischer 344/Male (50/Group), Route: Oral, Dose: 0, 100, 500, 1000 mg/kg/day of 99.0% fluroxypyr in diet for 2 yr, study duration 2 yr, Dose: 0, 100, 500, 1000 mg/kg/day of 99.0% fluroxypyr in diet for 2 yr, study duration 2 yr): inactive; negative

c1cc2ccc3cc4cccc5ccc6cc(c1)c2c3c6c54
carcinogen call (Species: MOUSE, Route: DERMAL, Tumor Site: Type of Lesion: INTEGUMENTARY SYSTEM (SKIN)): active; positive | carcinogen call (Species: RAT, Strain/Sex: OSBORNE-MENDEL/FEMALE, Route: LUNG IMPLANT, Dose: 0, 0.16, 0.83 MG IN BEESWAX/TRIOCTANOIN (STUDY DURATION: LIFETIME), Dose: 0, 0.16, 0.83 MG IN BEESWAX/TRIOCTANOIN (STUDY DURATION: LIFETIME), Tumor Site: Type of Lesion: LUNG: EPIDERMOID CARCINOMA): active; positive

OC1c2nc3c(ccc4ccccc43)cc2C2OC2C1O (stereo not given)
carcinogen call (Species: MOUSE, Strain/Sex: SWISS/FEMALE, Route: INTRAPERITONEAL, Dose: 0, 1.05 UMOL GIVEN AS 150 NMOL IN 5 µL DMSO WITHIN 24 HR OF BIRTH, 300 NMOL IN 10 µL DMSO ON D 8 OF LIFE, AND 600 NMOL I): inactive; negative | carcinogen call (Species: MOUSE, Strain/Sex: SWISS/MALE, Route: INTRAPERITONEAL, Dose: 0, 1.05 UMOL GIVEN AS 150 NMOL IN 5 µL DMSO WITHIN 24 HR OF BIRTH, 300 NMOL IN 10 µL DMSO ON D 8 OF LIFE, AND 600 NMOL I): inactive; negative

Cc1cc(-c2ccc(N/N=C3/C(=O)c4c(N)cc(S(=O)(=O)O)cc4C=C3S(=O)(=O)O)c(C)c2)ccc1N/N=C1/C(=O)c2c(N)cc(S(=O)(=O)O)cc2C=C1S(=O)(=O)O
carcinogen call (Species: RAT, Route: INTRAPERITONEAL, SUBCUTANEOUS, Tumor Site: Type of Lesion: LIVER, INJECTION SITE): active; positive

Nc1cccc2ccccc12
carcinogen call (Species: DOG, Strain/Sex: BEAGLE/FEMALE, Route: ORAL, Dose: 22.0 MG/KG 5/WK): inactive; negative | carcinogen call (Species: DOG, Strain/Sex: BEAGLE/MALE, Route: ORAL, Dose: 18.4 MG/KG 5/WK): inactive; negative

CCOC(=O)CC(SP(=S)(OC)OC)C(=O)OCC (stereo not given)
carcinogen call (Species: MOUSE, Strain/Sex: B6C3F1/FEMALE, Route: ORAL, Dose: 0, 8000, 16000 PPM IN DIET, Dose: 0, 8000, 16000 PPM IN DIET): inactive; negative | carcinogen call (Species: MOUSE, Strain/Sex: B6C3F1/MALE, Route: ORAL, Dose: 0, 8000, 16000 PPM IN DIET, Dose: 0, 8000, 16000 PPM IN DIET): inactive; negative | carcinogen call (Species: RAT, Strain/Sex: F344/FEMALE, Route: ORAL, Dose: 0, 2000, 4000 PPM IN DIET, Dose: 0, 2000, 4000 PPM IN DIET): inactive; negative | carcinogen call (Species: RAT, Strain/Sex: F344/MALE, Route: ORAL, Dose: 0, 2000, 4000 PPM IN DIET, Dose: 0, 2000, 4000 PPM IN DIET): inactive; negative | carcinogen call (Species: RAT, Strain/Sex: OSBORNE-MENDEL/FEMALE, Route: ORAL, Dose: 0, 4700, 8150 PPM IN DIET, TWA FOR 80 WK, Dose: 0, 4700, 8150 PPM IN DIET, TWA FOR 80 WK): inactive; negative | carcinogen call (Species: RAT, Strain/Sex: OSBORNE-MENDEL/MALE, Route: ORAL, Dose: 0, 4700, 8150 PPM IN DIET, TWA FOR 80 WK, Dose: 0, 4700, 8150 PPM IN DIET, TWA FOR 80 WK): inactive; negative

Reference: PubChem BioAssay AID1259411 (Chemical Carcinogenesis Research Information System (CCRIS), 2018)
